Laboratory results reported in publication PMC4198483 (Cancer cell, 2014).
Positions count from the first letter of the chain named.

Key:
TIPE3 (TNFAIP8L3) [1] = biological target: T1, TIPE3 (TNFAIP8L3) (Mus musculus, UniProt Q3TBL6); assay: vesicle sedimentation assay; type: binding; conditions: 20 µM protein; 1000 µM vesicles of 10% lipid + 90% PC
T1 sequence (Q3TBL6 1-204): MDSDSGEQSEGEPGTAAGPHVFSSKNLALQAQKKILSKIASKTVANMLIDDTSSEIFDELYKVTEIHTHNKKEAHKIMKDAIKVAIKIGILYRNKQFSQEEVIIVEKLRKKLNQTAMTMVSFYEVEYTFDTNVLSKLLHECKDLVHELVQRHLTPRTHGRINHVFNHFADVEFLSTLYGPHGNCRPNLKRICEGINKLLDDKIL

TIPE3 (TNFAIP8L3) [2] = biological target: T2, TIPE3 (TNFAIP8L3) (Mus musculus, UniProt Q3TBL6, K33Q/K34Q/K38Q/K42Q); assay: vesicle sedimentation assay; type: binding; conditions: 20 µM protein; 1000 µM vesicles of 10% lipid + 90% PC
T2 sequence (Q3TBL6 1-204 K33Q/K34Q/K38Q/K42Q): T1 sequence (Q3TBL6 1-204) with K33Q, K34Q, K38Q, K42Q

Row | Substance | % protein bound to vesicles (TIPE3 (TNFAIP8L3) [1]) | % protein bound to vesicles (TIPE3 (TNFAIP8L3) [2])
1 | PtdIns(4,5)P2 | > 60% | ~ 30%
2 | PtdIns(3,4,5)P3 | > 60% | 
